The test system of data set [1] is Lrat−/− mice. Put plainly: Oral gavage of 9-cis-R-Ac in LCA mouse model with LRAT deficiency. The data set is classed as in vivo. The text has this: (§1) We designed a polysaccharide therapeutic conjugate composition for the sustained release of 9-cis-retinyl esters to treat animal models of human retinal diseases, such as LCA. […] Unless initial high drug blood levels are unfavorable, this pharmacokinetic property could be beneficial because it relates to the therapeutic window, especially for drugs targeting peripheral tissues such as the retina through protein-mediated and protein-independent transport systems. A bolus dose could also establish a reversible depot of the drug in other tissues, thereby reducing the need for frequent dosing.

Data set [2] concerns Rpe65−/− mice. In words: Retinoid treatment in LCA mouse model with RPE65 deficiency. The class given is in vivo.
Description: as §1

A short description of data set [3]: 9-cis-retinoid concentrations in plasma after gavage. The class given is in vivo, mouse.
Description: as §1

The subject of data set [4] is Lrat−/− mice. The settings on record: dark room reared Lrat−/− mice; 6 gavages of 0.12 mg each over two weeks; vs untreated control Lrat−/− mice; cited from earlier work.

The structures appear in SMILES notation.

Turning to `CC(=O)OC/C=C(C)/C=C/C=C(C)\C=C\C1=C(C)CCCC1(C)C` [9-cis-R-Ac, 9-cis-retinyl acetate], in data set [1], the retinal morphology result is recorded as “preserves retinal morphology” and the visual function entry is recorded as “improves visual function”. For the same compound, in data set [2] (oral gavage, Rpe65−/− mice), the retinal morphology result is “preserves retinal morphology” and the visual function entry is on record as “improves visual function”. The “9-cis-retinoid concentrations in plasma” value in data set [3] (5 hours after oral administration) is “dropped markedly to low levels”. In addition, in data set [3] (after gavage), the “9-cis-retinoid concentrations in plasma” value is reported as “increased rapidly to high levels”. In data set [4], the ROS layer thickness result is listed as “substantially thicker” and the RPE-ROS interface result is given as “closer apposition”.

On to `CC1=C(/C=C/C(C)=C\C=C\C(C)=C\C=O)C(C)(C)CCC1` [9-cis-retinal], for which, in data set [2] (single dose, Rpe65−/− mice kept under laboratory lighting conditions), the visual function entry was “rescued visual function for months”.

Values taken from US10226536B2, “Polysaccharide therapeutic conjugates” (priority 2011, dated 2019).
